Assay results as given in ChEMBL document CHEMBL6103592, “Discovery of novel thiazole-pleuromutilin derivatives with potent antibacterial activity” (Eur J Med Chem, 2025).
In brackets after ≈: the same amount, converted by molar mass. Activity calls are given as the source filed them. The rule behind the calls is not given here.

What was measured:
Staphylococcus aureus [1] = experiment: Antibacterial activity against methicillin-resistant Staphylococcus aureus ATCC 43300 assessed as post antibiotic effect at 4 times MIC measured after 1 hr; format: functional
Staphylococcus aureus [2] = experiment: Bactericidal activity against methicillin-resistant Staphylococcus aureus ATCC 43300 assessed as increase in colony forming unit count at 1 times MIC incubated after 8 hrs by time-kill assay; format: functional, organism-based
Staphylococcus aureus [3] = experiment: Antibacterial activity against methicillin-resistant Staphylococcus aureus ATCC 43300 assessed as inhibition of visible bacterial growth incubated for 24 hrs by CLSI based broth microdilution method; format: functional
Staphylococcus aureus [4] = experiment: Drug resistance, ratio of MIC for methicillin-resistant Staphylococcus aureus ATCC 43300 after 21 passages to MIC for methicillin-resistant Staphylococcus aureus ATCC 43300 during first exposure; format: functional
Staphylococcus aureus [5] = experiment: Antibacterial efficacy against methicillin-resistant Staphylococcus aureus ATCC 43300 infected in cyclophosphamide-induced neutropenic systemic infection Kunming mouse model assessed as alveolar epithelial cell necrosis at 20 mg/kg, iv pretreated with cyclophosphamide for 1 hr followed by compound addition and measured after 5 days by light microscopic analysis; format: functional, organism-based; conditions: time 5.0 day
Staphylococcus aureus [6] = experiment: Antibacterial activity against methicillin-resistant Staphylococcus aureus ATCC 43300 assessed as post antibiotic effect at 2 times MIC measured after 1 hr; format: functional
Staphylococcus aureus [7] = experiment: Antibacterial activity against methicillin-resistant Staphylococcus aureus ATCC 43300 assessed as post antibiotic effect at 8 times MIC measured after 1 hr; format: functional
Staphylococcus aureus [8] = experiment: Antibacterial activity against methicillin-resistant Staphylococcus aureus ATCC 43300 assessed as post antibiotic effect at 1 times MIC measured after 1 hr; format: functional
Staphylococcus aureus [9] = experiment: Antibacterial efficacy against methicillin-resistant Staphylococcus aureus ATCC 43300 infected in cyclophosphamide-induced neutropenic systemic infection Kunming mouse model assessed as reduction in bacterial load in kidney at 20 mg/kg, iv pretreated with cyclophosphamide for 1 hr followed by compound addition and measured after 5 days; format: functional, organism-based; conditions: time 5.0 day
Staphylococcus aureus [10] = experiment: Antibacterial activity against methicillin-resistant Staphylococcus aureus ATCC 43300 assessed as reduction in bacterial proteins level at 0.5 to 2 microg/ml measured for 4 hrs; format: functional, organism-based; conditions: dose 0.5-2 µg/ml
Streptococcus agalactiae = experiment: Antibacterial activity against Streptococcus agalactiae assessed as inhibition of visible bacterial growth incubated for 24 hrs by CLSI based broth microdilution method; format: functional
Mycoplasma = experiment: Antibacterial activity against Mycoplasma F3 assessed as inhibition of visible bacterial growth incubated for 24 hrs by CLSI based broth microdilution method; format: functional
Staphylococcus aureus [11] = experiment: Antibacterial activity against methicillin resistant Staphylococcus aureus; format: functional
Staphylococcus aureus [12] = experiment: Bactericidal activity against methicillin-resistant Staphylococcus aureus ATCC 43300 at 1 times MIC incubated upto 24 hrs by time-kill assay; format: functional, organism-based
Staphylococcus aureus [13] = experiment: Antibacterial activity against Staphylococcus aureus ATCC 25923 assessed as inhibition of visible bacterial growth incubated for 24 hrs by CLSI based broth microdilution method; format: functional
Enterococcus faecalis = experiment: Antibacterial activity against Enterococcus faecalis assessed as inhibition of visible bacterial growth incubated for 24 hrs by CLSI based broth microdilution method; format: functional
Escherichia coli = experiment: Antibacterial activity against Escherichia coli ATCC 25922 assessed as inhibition of visible bacterial growth incubated for 24 hrs by CLSI based broth microdilution method; format: functional

Row | SMILES | PAE (Staphylococcus aureus [1]) [h] | Activity (Staphylococcus aureus [2]) | MIC (Staphylococcus aureus [3]) [µg/mL] | Ratio (Staphylococcus aureus [4]) | Activity (Staphylococcus aureus [5]) | PAE (Staphylococcus aureus [6]) [h] | PAE (Staphylococcus aureus [7]) [h] | PAE (Staphylococcus aureus [8]) [h] | Activity (Staphylococcus aureus [9]) | Activity (Staphylococcus aureus [10]) | MIC (Streptococcus agalactiae) [µg/mL] | MIC (Mycoplasma) [µg/mL] | MIC (Staphylococcus aureus [11]) [µg/mL] | Activity (Staphylococcus aureus [12]) | MIC (Staphylococcus aureus [13]) [µg/mL] | MIC (Enterococcus faecalis) [µg/mL] | MIC (Escherichia coli) [µg/mL]
1 | C=C[C@]1(C)C[C@@H](OC(=O)CSCCN(CC)CC)[C@]2(C)[C@H](C)CC[C@]3(CCC(=O)[C@H]32)[C@@H](C)[C@@H]1O [TIAMULIN] | 1.54 | Active | 0.25 (≈ 0.506 µM) | 64 | Active | 0.91 | 2.2 | 0.42 | inactive | Active | 0.125 (≈ 0.253 µM) | 0.008 (≈ 0.0162 µM) | 0.5 (≈ 1.01 µM) | Active | 0.25 (≈ 0.506 µM) | > 32 | > 32
2 | C=C[C@]1(C)C[C@@H](OC(=O)CSc2nc(OC(=O)c3ccccc3)cs2)[C@]2(C)[C@H](C)CC[C@]3(CCC(=O)[C@H]32)[C@@H](C)[C@@H]1O |  |  | 1 (≈ 1.67 µM) |  |  |  |  |  |  |  | 0.063 (≈ 0.105 µM) | 0.25 (≈ 0.418 µM) |  |  | 0.5 (≈ 0.836 µM) | > 32 | > 32
3 | C=C[C@]1(C)C[C@@H](OC(=O)CSc2nc(OC(=O)c3cccc(F)c3)cs2)[C@]2(C)[C@H](C)CC[C@]3(CCC(=O)[C@H]32)[C@@H](C)[C@@H]1O |  |  | 0.5 (≈ 0.812 µM) |  |  |  |  |  |  |  | 0.125 (≈ 0.203 µM) | 0.5 (≈ 0.812 µM) |  |  | 2 (≈ 3.25 µM) | > 32 | > 32
4 | C=C[C@]1(C)C[C@@H](OC(=O)CSc2nc(OC(=O)c3cccs3)cs2)[C@]2(C)[C@H](C)CC[C@]3(CCC(=O)[C@H]32)[C@@H](C)[C@@H]1O |  |  | 1 (≈ 1.66 µM) |  |  |  |  |  |  |  | 0.25 (≈ 0.414 µM) | 0.25 (≈ 0.414 µM) |  |  | 0.5 (≈ 0.828 µM) | > 32 | > 32
5 | C=C[C@]1(C)C[C@@H](OC(=O)CSc2nc(OC(=O)c3ccccc3Br)cs2)[C@]2(C)[C@H](C)CC[C@]3(CCC(=O)[C@H]32)[C@@H](C)[C@@H]1O |  |  | 0.5 (≈ 0.739 µM) |  |  |  |  |  |  |  | 0.063 (≈ 0.0931 µM) | 0.5 (≈ 0.739 µM) |  |  | 2 (≈ 2.96 µM) | > 32 | > 32
6 | C=C[C@]1(C)C[C@@H](OC(=O)CSc2nc(OC(=O)c3cccc(C)c3)cs2)[C@]2(C)[C@H](C)CC[C@]3(CCC(=O)[C@H]32)[C@@H](C)[C@@H]1O |  |  | 0.5 (≈ 0.817 µM) |  |  |  |  |  |  |  | 0.063 (≈ 0.103 µM) | 0.5 (≈ 0.817 µM) |  |  | 0.5 (≈ 0.817 µM) | > 32 | > 32
7 | C=C[C@]1(C)C[C@@H](OC(=O)CSc2nc(OC(=O)c3cccc(Br)c3)cs2)[C@]2(C)[C@H](C)CC[C@]3(CCC(=O)[C@H]32)[C@@H](C)[C@@H]1O |  |  | 0.5 (≈ 0.739 µM) |  |  |  |  |  |  |  | 0.063 (≈ 0.0931 µM) | 0.25 (≈ 0.369 µM) |  |  | 2 (≈ 2.96 µM) | > 32 | > 32
8 | C=C[C@]1(C)C[C@@H](OC(=O)CSc2nc(OC(=O)CCCCCCC)cs2)[C@]2(C)[C@H](C)CC[C@]3(CCC(=O)[C@H]32)[C@@H](C)[C@@H]1O |  |  | 2 (≈ 3.23 µM) |  |  |  |  |  |  |  | 0.125 (≈ 0.202 µM) | 0.5 (≈ 0.807 µM) |  |  | 2 (≈ 3.23 µM) | > 32 | > 32
9 | C=C[C@]1(C)C[C@@H](OC(=O)CSc2nc(OC(=O)c3c(Cl)cc(Cl)cc3Cl)cs2)[C@]2(C)[C@H](C)CC[C@]3(CCC(=O)[C@H]32)[C@@H](C)[C@@H]1O |  |  | 16 (≈ 22.8 µM) |  |  |  |  |  |  |  | 0.5 (≈ 0.713 µM) | 1 (≈ 1.43 µM) |  |  | 16 (≈ 22.8 µM) | > 32 | > 32
10 | C=C[C@]1(C)C[C@@H](OC(=O)CSc2nc(OC(=O)C(CC)CCCC)cs2)[C@]2(C)[C@H](C)CC[C@]3(CCC(=O)[C@H]32)[C@@H](C)[C@@H]1O (stereo partly specified) |  |  | 0.5 (≈ 0.807 µM) |  |  |  |  |  |  |  | 0.25 (≈ 0.403 µM) | 0.5 (≈ 0.807 µM) |  |  | 2 (≈ 3.23 µM) | > 32 | > 32
11 | C=C[C@]1(C)C[C@@H](OC(=O)CSc2nc(OC(=O)CCCCC)cs2)[C@]2(C)[C@H](C)CC[C@]3(CCC(=O)[C@H]32)[C@@H](C)[C@@H]1O |  |  | 1 (≈ 1.69 µM) |  |  |  |  |  |  |  | 0.125 (≈ 0.211 µM) | 0.5 (≈ 0.845 µM) |  |  | 1 (≈ 1.69 µM) | > 32 | > 32
12 | C=C[C@]1(C)C[C@@H](OC(=O)CSc2nc(OC(=O)C3CCC3)cs2)[C@]2(C)[C@H](C)CC[C@]3(CCC(=O)[C@H]32)[C@@H](C)[C@@H]1O |  |  | 0.5 (≈ 0.868 µM) |  |  |  |  |  |  |  | 0.063 (≈ 0.109 µM) | 0.5 (≈ 0.868 µM) |  |  | 1 (≈ 1.74 µM) | > 32 | > 32
13 | C=C[C@]1(C)C[C@@H](OC(=O)CSC2=NC(=O)CS2)[C@]2(C)[C@H](C)CC[C@]3(CCC(=O)[C@H]32)[C@@H](C)[C@@H]1O |  |  | 1 (≈ 2.03 µM) |  |  |  |  |  |  |  | 0.125 (≈ 0.253 µM) | 0.5 (≈ 1.01 µM) |  |  | 0.5 (≈ 1.01 µM) | > 32 | > 32
14 | C=C[C@]1(C)C[C@@H](OC(=O)CSc2nc(OC(=O)c3ccccc3F)cs2)[C@]2(C)[C@H](C)CC[C@]3(CCC(=O)[C@H]32)[C@@H](C)[C@@H]1O |  |  | 0.5 (≈ 0.812 µM) |  |  |  |  |  |  |  | 0.125 (≈ 0.203 µM) | 0.25 (≈ 0.406 µM) |  |  | 0.5 (≈ 0.812 µM) | > 32 | > 32
15 | C=C[C@]1(C)C[C@@H](OC(=O)CSc2nc(OC(=O)CCC)cs2)[C@]2(C)[C@H](C)CC[C@]3(CCC(=O)[C@H]32)[C@@H](C)[C@@H]1O |  |  | 1 (≈ 1.77 µM) |  |  |  |  |  |  |  | 0.125 (≈ 0.222 µM) | 0.25 (≈ 0.443 µM) |  |  | 1 (≈ 1.77 µM) | > 32 | > 32
16 | C=C[C@]1(C)C[C@@H](OC(=O)CSc2nc(OC(=O)CC(C)C)cs2)[C@]2(C)[C@H](C)CC[C@]3(CCC(=O)[C@H]32)[C@@H](C)[C@@H]1O |  |  | 0.5 (≈ 0.865 µM) |  |  |  |  |  |  |  | 0.125 (≈ 0.216 µM) | 0.125 (≈ 0.216 µM) |  |  | 1 (≈ 1.73 µM) | > 32 | > 32
17 | C=C[C@]1(C)C[C@@H](OC(=O)CSc2nc(OC(=O)c3ccccc3C)cs2)[C@]2(C)[C@H](C)CC[C@]3(CCC(=O)[C@H]32)[C@@H](C)[C@@H]1O |  |  | 1 (≈ 1.63 µM) |  |  |  |  |  |  |  | 0.063 (≈ 0.103 µM) | 1 (≈ 1.63 µM) |  |  | 2 (≈ 3.27 µM) | > 32 | > 32
18 | C=C[C@]1(C)C[C@@H](OC(=O)CSc2nc(OC(=O)C3CCCC3)cs2)[C@]2(C)[C@H](C)CC[C@]3(CCC(=O)[C@H]32)[C@@H](C)[C@@H]1O |  |  | 1 (≈ 1.7 µM) |  |  |  |  |  |  |  | 0.25 (≈ 0.424 µM) | 0.25 (≈ 0.424 µM) |  |  | 2 (≈ 3.39 µM) | > 32 | > 32
19 | C=C[C@]1(C)C[C@@H](OC(=O)CSc2nc(OC(=O)C3CCCCC3)cs2)[C@]2(C)[C@H](C)CC[C@]3(CCC(=O)[C@H]32)[C@@H](C)[C@@H]1O |  |  | 1 (≈ 1.66 µM) |  |  |  |  |  |  |  | 0.125 (≈ 0.207 µM) | 0.5 (≈ 0.828 µM) |  |  | 1 (≈ 1.66 µM) | > 32 | > 32
20 | CCC[C@@H]1C[C@@H](C(=O)N[C@@H]([C@H]2O[C@H](SC)[C@H](O)[C@@H](O)[C@H]2O)[C@H](C)Cl)N(C)C1 [CLINDAMYCIN] |  |  | > 32 |  |  |  |  |  |  |  | > 32 | 1 (≈ 2.35 µM) |  |  | > 32 | 16 (≈ 37.6 µM) | 32 (≈ 75.3 µM)
